In patent publication US20100099698A1, “Compositions for Improving Skin Conditions Comprising Matrine or Its Oxidized Derivatives” (Biospectrum Inc., priority 2007, published 2010):

Key:
[1] = Anti-oxidation: removal of superoxide anion generated by xanthine oxidase (SOD Assay Kit-WST); type: biochemical
Protocol: This experiment evaluates anti-oxidation activity of sample by observing removal of superoxide anion generated by xanthine oxidase. The experiment was performed using the kit (SOD Assay Kit-WST) purchased from Dojindo (JP) in accordance with manufacture's protocol.

pigmentation of skin = test: Skin whitening of UV-induced pigmentation, chromameter L* value; type: in vivo, brown guinea pigs; conditions: for Whitening effects (ΔL): topical once or twice a day for 50 days, UV-pigmented abdominal skin
Protocol: A whitening effect of matrine and oxymatrine was measured using brown guinea pigs (Charles River Laboratories, Inc.), known to increase its pigmentation upon exposure to ultraviolet light, like in humans. To cause pigmentation in the brown guinea pig by ultraviolet (UV), aluminum foil with square windows of 3×3 cm^2 was adhered to hair-removed abdominal skin of brown guinea pig, and then UV light was irradiated thereon with a SE lamp (wavelength 290-320 nm, Toshiba) (total irradiation energy=1350 mJ/cm^2). After UV irradiation, the aluminum foil was removed and samples (matrine, oxymatrine or albutin) were applied as the following method. […] From the maximum, samples were applied. Applications performed once or twice a day for 50 days. […] The control with only the solvent was applied to another site. Occurrence of cumulative irritation also was examined. The degree of pigmentation of skin was determined using a chromameter (CR2002, MINOLTA, JP) to estimate the effects of applied samples. L*a*b* colorimetric system was used to classify color and L* value was used as standard in the present invention. The L* value was corrected using white board standard and was measured more than five times at one site, repeatedly. Pigmentation was evenly distributed. Skin color differences (ΔL*) between application initial point and application terminal point were obtained and then using these values, their effects of the applied samples were estimated. ΔL*=L* value at […] after application-L* value at application initial day. Equation 1 ΔL* values were obtained both at sample application site and control application site and compared, whereby the effects of the whitening substances can be estimated.

COX (cyclooxygenase) = test: COX inhibitory ability in LPS-treated THP-1 cells, [1-14C] arachidonic acid, TLC; type: cell-based, human; conditions: LPS alone = 100
Protocol: To determine whether matrine and oxymatrine had anti-inflammatory effects, the experiment of COX (cyclooxygenase) inhibitory ability was carried out using human monocytic cell, THP-1 cell (Korean Cell Line Bank) according to conventional method. […] J. Van de Ouderaaa and Muytenhek. THP-1 cell line was cultivated and aliquoted into 24-well plate. The incubation volume per well was adjusted to 500 μl, 2 μl of the sample compound, which dissolved in […] (1 μg/ml, Sigma) and solvents described in the following Table 9 respectively, was added and cultivated for 24-48 hr under the same condition. After 24-48 hr, calcium ionophore (Sigma) and [1-14C] arachidonic acid 1 μl (in EtOH, 0.1 μCi/ml, Sigma) were added to each well, and cultivated for 10 min under the same condition. Following the cultivation, citric acid was added to each well for adjusting to pH 3.5, shaked, each 500 μl of cultivation solution taken from the plate was aliquoted into micro centrifuge tube, 700 μl of ethylacetate was added to thereto, and the solution was shaking extracted for 10 min. 500 μl of ethylacetate layer was concentrated using speed vacuum dryer for 20 min, 20 μl of the residual was dissolved in ethylacetate, and the resultant was employed with authentic standard in TLC plate. The radioactive band was identified by authentic eicosanoid standards, the radioactivity of the identified band was measured using BAS 2000 bio-imaging analyzer (Fuji, JP) (Table 9).

Interleukin-2 promoter = test: Interleukin-2 luciferase reporter activity in PHA-activated Jurkat cells; type: cell-based, Human; conditions: PHA alone = 100
Protocol: Interleukin-2 promoter was reported to play an important role in the generation of cytokine related to inflammatory. The activity of interleukin-2 luciferase was measured using the following method: […] Following 24 hr, the cell was collected and the luciferase activity was measured using luminometer (Berthold Technologies GmbH&Co.KG, Germany).

tyrosinase = target: T1, tyrosinase (Mus musculus, UniProt P11344); test: Inhibition of intracellular tyrosinase activity in melanoma cells; type: cell-based, Murine; conditions: B16-F1, read-out: Inhibitory rate of intracellular tyrosinase activity (%)
T1 construct: This cell pellets were lysated using lysis buffer, centrifuged at 12,000 rpm for 10 min and the supernatant was collected; endogenous in cells; host or cells: B16 F1 mouse melanoma cells (Korean Cell Line Bank)
T1 sequence (P11344 19-533): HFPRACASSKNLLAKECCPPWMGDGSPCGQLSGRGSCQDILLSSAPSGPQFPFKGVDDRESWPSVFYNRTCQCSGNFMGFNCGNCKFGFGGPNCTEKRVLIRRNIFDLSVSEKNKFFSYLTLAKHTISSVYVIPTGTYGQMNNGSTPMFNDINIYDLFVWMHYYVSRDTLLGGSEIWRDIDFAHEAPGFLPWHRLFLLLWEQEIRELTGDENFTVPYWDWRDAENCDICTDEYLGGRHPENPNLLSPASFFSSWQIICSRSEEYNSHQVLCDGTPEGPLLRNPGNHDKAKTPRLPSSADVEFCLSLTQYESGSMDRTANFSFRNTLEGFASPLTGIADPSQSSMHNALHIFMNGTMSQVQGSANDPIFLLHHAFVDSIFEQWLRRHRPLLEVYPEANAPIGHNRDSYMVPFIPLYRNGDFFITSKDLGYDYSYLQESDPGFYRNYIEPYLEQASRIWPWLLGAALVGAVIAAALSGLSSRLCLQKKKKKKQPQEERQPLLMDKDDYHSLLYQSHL
Protocol: After measuring the inhibition of melanin production by matrine and oxymatrine using B16 mouse melanoma cells (Korean Cell Line Bank), the measurement was compared with that for the inhibition of intracellular tyrosinase activities by arbutin, known as a melanin production inhibitor.
Murine melanoma (B-16 F1) cells were seeded into each well of a 6-well plate (1×10^5 cells/well) in DMEM containing 10% FBS (fetal bovine serum) and the cells were cultured to about more than 80% adherence by incubating in a CO2 incubator under conditions of 37° C. and 5.0% CO2. After cultivation, the medium was removed and samples were replaced in medium diluted at suitable concentration, followed by incubating for 3 days under conditions of 37° C. and 5.0% CO2. […] The cells removing medium were washed with PBS (phosphate buffer saline) and treated with trypsin to collect cells. Number of the collected cells was calculated using hematocytometer, centrifuged at 5,000 to 10,000 rpm for 10 min and the supernatant was eliminated, thereby obtaining pellets. This cell pellets were lysated using lysis buffer, centrifuged at 12,000 rpm for 10 min and the supernatant was collected. Then, the cell solution was measured for absorbance at 492 nm using microplate reader and the activity of tyrosinase per cell constant number was estimated.

Row | Compound | Removal rate of superoxide anion (%) ([1]; 10 μM) | Removal rate of superoxide anion (%) ([1]; 100 μM) | Removal rate of superoxide anion (%) ([1]; 500 μM) | Whitening effects (ΔL) (pigmentation of skin; 0.2 %) | Whitening effects (ΔL) (pigmentation of skin; 1.0 %) | Occurrence of cumulative irritation (pigmentation of skin; brown guinea pig skin, application for 50 days) | COX activities (%) (COX (cyclooxygenase); 10 uM with LPS (1 μg/ml)) | COX activities (%) (COX (cyclooxygenase); 100 uM with LPS (1 μg/ml)) | COX activities (%) (COX (cyclooxygenase); 500 uM with LPS (1 μg/ml)) | IL-2 luciferase activities (Interleukin-2 promoter; 10 uM with PHA (100 ng/ml)) | IL-2 luciferase activities (Interleukin-2 promoter; 100 uM with PHA (100 ng/ml)) | IL-2 luciferase activities (Interleukin-2 promoter; 500 uM with PHA (100 ng/ml)) | inhibition at 10 µM (tyrosinase) [%] | inhibition at 100 µM (tyrosinase) [%] | inhibition at 500 µM (tyrosinase) [%]
1 | O=C1CCC[C@@H]2[C@H]3CCCN4CCC[C@@H](CN12)[C@@H]34 [Matrine, matrine] | 6 | 12 | 24 | 0.38 | 0.53 | not observing the occurrence of cumulative irritation | 98 | 87 | 65 | 92 | 77 | 68 | 13 | 32 | 37
2 | O=C1CCC[C@@H]2[C@H]3CCC[N+]4([O-])CCC[C@@H](CN12)[C@@H]34 (some centres unmarked) [Oxymatrine, oxymatrine] | 4 | 17 | 32 | 0.24 | 0.50 |  | 94 | 81 | 71 | 95 | 78 | 62 | 11 | 29 | 34
